Assay results published in US12384765B2, “Catecholamine prodrugs for use in the treatment of Parkinson's Disease” (H. Lundbeck A/S, priority 2019, dated 2025).

Legend:
[1] = Conversion of compounds in human plasma; type: in vitro ADME; details: for Observed metabolite, Incubation in human plasma: 1 μM test compound, 37° C., 0-6 hr, nd: not detected; for appearance of compound (I) / conversion in vitro: incubation in human plasma and/or human hepatocytes
Protocol: Frozen human plasma was thawed and then centrifuged at 3200×g for 5 min to remove debris. The pH value of the supernatant was then measured and adjusted to 7.4±0.1 by adding 1% phosphoric acid or 1 N sodium hydroxide. 2 μL of dosing solution (50 μM for test compounds and 100 μM for positive control (propantheline bromide)) was mixed with 98 μL of blank plasma to achieve 1 μM test compound and 2 μM positive control of final concentration. The mixture was incubated, and samples were withdrawn from the incubations at the pre-determined time points of 0, 0.5, 1, 2, 4 and 6 hr (in duplicate) at 37° C. in water bath. At each corresponding time point 10 μL inhibitor and 20 μL ascorbic acid and 2 μL formic acid (20%) are added, and then added 400 μL of “stop solution” (200 ng/mL tolbutamide plus 200 ng/mL labetalol in 50% ACN/MeOH) to precipitate protein. The substance was mixed thoroughly and thereafter Centrifugated at 4,000 rpm for 20 minutes. Then an aliquot of supernatant (50 μL) was transferred from each well to a sample plate and mixed with 100 μL ultrapure water. The plate was shaked at 800 rpm for about 10 minutes before submitting to LC-MS/MS analysis.
Mass spectrometer (LC-MS/MS) Shimadzu LC 20-AD Shimadzu UHPLC API 4000. Analytical column ACQUITY UPLC® BEH Phenyl 1.7 μm 2.1×50 mm. Mobile phase A: 0.1% Formic Acid in Water. Mobile phase B: 0.1% Formic Acid in Acetonitrile. […] Flow rate 0.7 mL/min.

human 5-HT2B receptor = human 5-HT2B receptor (Homo sapiens (Human), UniProt P41595); assay: 5-HT2B agonist activity assay (IP1 production, HTRF); type: cell-based; details: for activity at 10 µM: read-out: 5-HT2B agonist activity, percent of control response
Protocol: Evaluation of the agonist activity of compounds (I), (Ia), (Ib), (Ic), (Ia-iab), compound (2), compound (9), compound (15), compound (27), A2, A3, and A7 at the human 5-HT2B receptor was performed by Eurofins/Cerep (France) measuring the compound effects on inositol monophosphate (IP1) production using the HTRF detection method. Briefly, the human 5-HT2B receptor was expressed in transfected CHO cells. The cells were suspended in a buffer containing 10 mM Hepes/NaOH (pH 7.4), 4.2 mM KCl, 146 mM NaCl, 1 mM CaCl2, 0.5 mM MgCl2, 5.5 mM glucose and 50 mM LiCl, then distributed in microplates at a density of 4100 cells/well and incubated for 30 minutes at 37° C. in the presence of buffer (basal control), test compound or reference agonist. For stimulated control measurement, separate assay wells contained 1 μM 5-HT. Following incubation, the cells were lysed and the fluorescence acceptor (fluorophen D2-labeled IP1) and fluorescence donor (anti-IP1 antibody labeled with europium cryptate) were added. After 60 minutes at room temperature, the fluorescence transfer was measured at lambda(Ex) 337 nm and lambda(Em) 620 and 665 nm using a microplate reader (Rubystar, BMG). The IP1 concentration was determined by dividing the signal measured at 665 nm by that measured at 620 nm (ratio). The results were expressed as a percent of the control response to 1 μM 5-HT. The standard reference agonist was 5-HT, which was tested in each experiment at several concentrations to generate a concentration-response curve from which its EC50 value is calculated as described above for dopamine functional assays.

[2] = PK experiments in rats, plasma compound (I) after oral dosing; type: in vivo, Han Wistar rats; details: for Observed metabolite, In vivo PK study after oral dosing (rats) / conversion to compound (I) in vivo: oral dosing, rats
Protocol: Plasma was placed on water-ice following collection. Final storage at approximately −70° C.
Mobile phase B: Acetonitrile. […] Flow rate 0.5 mL/min.
The rats had unrestricted access to the diet.
Mobile phase B: Acetonitrile+0.2% formic acid. […] Flow rate 0.3 mL/min.
The rats received a standard laboratory diet Teklad 2014C. The rats had unrestricted access to the diet.

human 5-HT2B receptor, sequence (P41595 whole entry): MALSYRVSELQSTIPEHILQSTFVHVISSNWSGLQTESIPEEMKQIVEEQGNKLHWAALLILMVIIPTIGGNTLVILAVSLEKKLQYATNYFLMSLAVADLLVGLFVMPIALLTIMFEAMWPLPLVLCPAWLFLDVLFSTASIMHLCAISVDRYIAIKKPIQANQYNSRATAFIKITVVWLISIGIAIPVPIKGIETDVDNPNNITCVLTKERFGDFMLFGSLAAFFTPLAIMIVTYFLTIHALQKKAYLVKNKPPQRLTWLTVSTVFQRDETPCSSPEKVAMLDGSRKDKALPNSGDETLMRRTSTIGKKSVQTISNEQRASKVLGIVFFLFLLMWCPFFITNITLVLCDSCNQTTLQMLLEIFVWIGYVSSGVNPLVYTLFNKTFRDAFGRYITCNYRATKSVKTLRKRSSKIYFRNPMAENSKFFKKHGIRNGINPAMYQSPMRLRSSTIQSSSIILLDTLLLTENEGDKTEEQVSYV

SMILES | Observed metabolite, Incubation in human plasma [1] | activity at 10 µM (human 5-HT2B receptor) [%] | appearance of compound (I) / conversion in vitro [1] | other results
CCCN1CCC[C@@H]2Cc3c(ccc(O)c3O[C@@H]3O[C@H](C(=O)OCC)[C@@H](OC(=O)C(C)(C)C)[C@H](OC(=O)C(C)(C)C)[C@H]3OC(=O)C(C)(C)C)C[C@H]21 [Compound (14), (2S,3S,4S,5R,6S)-2-(ethoxycarbonyl)-6-(((4aR,10aR)-7-hydroxy-1-propyl-1,2,3,4,4a,5,10,10a-octahydrobenzo[g]quinolin-6-yl)oxy)tetrahydro-2H-pyran-3,4,5-triyl tris(2,2-dimethylpropanoate)] | Compound (6) |  |  | 
CCCN1CCC[C@@H]2Cc3c(ccc(O[C@@H]4O[C@H](C(=O)OC)[C@@H](OC(C)=O)[C@H](OC(C)=O)[C@H]4OC(C)=O)c3OC(C)=O)C[C@H]21 [Compound A3, (2S,3R,4S,5S,6S)-2-(((4aR,10aR)-6-Acetoxy-1-propyl-1,2,3,4,4a,5,10,10a-octahydrobenzo[g]quinolin-7-yl)oxy)-6-(methoxycarbonyl)tetrahydro-2H-pyran-3,4,5-triyl triacetate] | compound (27) |  |  | 5-HT2B agonist activity, percent of control response (human 5-HT2B receptor; @ 10 μM): 3% @ 10 μM
CCCN1CCC[C@@H]2Cc3c(ccc(OC(=O)C(C)(C)C)c3OC(=O)C(C)(C)C)C[C@H]21 [(Ic), reference compound] |  | -5 |  | plasma concentrations of compound (I) after oral dosing (in words) ([2]; oral dosing to Wistar rats): extremely low
CCCN1CCC[C@@H]2Cc3c(ccc(O)c3O[C@@H]3O[C@H](C(=O)OC)[C@@H](OC(=O)C(C)(C)C)[C@H](OC(=O)C(C)(C)C)[C@H]3OC(=O)C(C)(C)C)C[C@H]21 [Compound (26), (2S,3S,4S,5R,6S)-2-(methoxycarbonyl)-6-(((4aR,10aR)-7-hydroxy-1-propyl-1,2,3,4,4a,5,10,10a-octahydrobenzo[g]quinolin-6-yl)oxy)tetrahydro-2H-pyran-3,4,5-triyl tris(2,2-dimethylpropanoate)] | Compound (6) |  |  | 
CCCN1CCC[C@@H]2Cc3c(ccc(O)c3O[C@@H]3O[C@H](C(=O)OC)[C@@H](OC(C)=O)[C@H](OC(C)=O)[C@H]3OC(C)=O)C[C@H]21 [Compound (2), (2S,3R,4S,5S,6S)-2-(((4aR,10aR)-7-hydroxy-1-propyl-1,2,3,4,4a,5,10,10a-octahydrobenzo[g]quinolin-6-yl)oxy)-6-(methoxycarbonyl)tetrahydro-2H-pyran-3,4,5-triyl triacetate] | Compound (Id-ia) | 10 | no appearance of compound (I) | Observed metabolite, In vivo PK study after oral dosing (rats) [2]: Compound (I); conversion to compound (I) in vivo [2]: showed conversion in vivo
CCCN1CCC[C@@H]2Cc3c(ccc(OCc4ccccc4)c3O)C[C@H]21.I [Compound A2, (4aR,10aR)-7-(Benzyloxy)-1-propyl-1,2,3,4,4a,5,10,10a-octahydrobenzo[g]quinolin-6-ol hydroiodide] |  | 30 |  | Observed metabolite, In vivo PK study after oral dosing (rats) [2]: Compound (I)
CCCN1CCC[C@@H]2Cc3c(ccc(O)c3O[C@@H]3OC(C(=O)OC)=C[C@H](OC(C)=O)[C@H]3OC(C)=O)C[C@H]21 [Compound (3), (2R,3R,4S)-2-(((4aR,10aR)-7-hydroxy-1-propyl-1,2,3,4,4a,5,10,10a-octahydrobenzo[g]quinolin-6-yl)oxy)-6-(methoxycarbonyl)-3,4-dihydro-2H-pyran-3,4-diyl diacetate] | Compound (9) |  |  | 
CCCN1CCC[C@@H]2Cc3c(ccc(O)c3O[C@@H]3OC(C(=O)O)=C[C@H](O)[C@H]3O)C[C@H]21 [Compound (9), (2R,3R,4S)-3,4-dihydroxy-2-(((4aR,10aR)-7-hydroxy-1-propyl-1,2,3,4,4a,5,10,10a-octahydrobenzo[g]quinolin-6-yl)oxy)-3,4-dihydro-2H-pyran-6-carboxylic acid] |  | 9 | no appearance of compound (I) | conversion to compound (I) in vivo [2]: showed conversion in vivo
CCCN1CCC[C@@H]2Cc3c(ccc(O[C@@H]4O[C@H](C(=O)OC)[C@@H](OC(C)=O)[C@H](OC(C)=O)[C@H]4OC(C)=O)c3O[C@@H]3O[C@H](C(=O)OC)[C@@H](OC(C)=O)[C@H](OC(C)=O)[C@H]3OC(C)=O)C[C@H]21 [Compound I2, methyl (2S,3S,4S,5R,6S)-6-[[(4aR,10aR)-1-propyl-6-[(2S,3R,4S,5S,6S)-3,4,5-triacetoxy-6-methoxycarbonyl-tetrahydropyran-2-yl]oxy-3,4,4a,5,10,10a-hexahydro-2H-benzo[g]quinolin-7-yl]oxy]-3,4,5-triacetoxy-tetrahydropyran-2-carboxylate] |  |  | no vitro conversion | 
CCCN1CCC[C@@H]2Cc3c(ccc(OCc4ccccc4)c3O[C@@H]3O[C@H](C(=O)O)[C@@H](O)[C@H](O)[C@H]3O)C[C@H]21 [Compound (4), (2S,3S,4S,5R,6S)-6-(((4aR,10aR)-7-(benzyloxy)-1-propyl-1,2,3,4,4a,5,10,10a-octahydrobenzo[g]quinolin-6-yl)oxy)-3,4,5-trihydroxytetrahydro-2H-pyran-2-carboxylic acid] | Compound A2 |  |  | 
CCCN1CCC[C@@H]2Cc3c(ccc(O[C@@H]4O[C@H](C(=O)OC)[C@@H](OC(C)=O)[C@H](OC(C)=O)[C@H]4OC(C)=O)c3O)C[C@H]21 [Compound (27), (2S,3R,4S,5S,6S)-2-(((4aR,10aR)-6-hydroxy-1-propyl-1,2,3,4,4a,5,10,10a-octahydrobenzo[g]quinolin-7-yl)oxy)-6-(methoxycarbonyl)tetrahydro-2H-pyran-3,4,5-triyl triacetate] | Compound (Id-ib) | 2 |  | Observed metabolite, In vivo PK study after oral dosing (rats) [2]: Compound (I)
CCCN1CCC[C@@H]2Cc3c(ccc(OC)c3O[C@@H]3O[C@H](C(=O)O)[C@@H](O)[C@H](O)[C@H]3O)C[C@H]21 [Compound (15), (2S,3S,4S,5R,6S)-3,4,5-trihydroxy-6-(((4aR,10aR)-7-methoxy-1-propyl-1,2,3,4,4a,5,10,10a-octahydrobenzo[g]quinolin-6-yl)oxy)tetrahydro-2H-pyran-2-carboxylic acid] |  | 0 | no appearance of compound (I) | conversion to compound (I) in vivo [2]: showed conversion in vivo
CCCN1CCC[C@@H]2Cc3c(ccc(O)c3O[C@@H]3O[C@H](C(=O)OCC)[C@@H](OC(C)=O)[C@H](OC(C)=O)[C@H]3OC(C)=O)C[C@H]21 [Compound (11), (2S,3S,4S,5R,6S)-2-(ethoxycarbonyl)-6-(((4aR,10aR)-7-hydroxy-1-propyl-1,2,3,4,4a,5,10,10a-octahydrobenzo[g]quinolin-6-yl)oxy)tetrahydro-2H-pyran-3,4,5-triyl triacetate] |  |  | converted to compound (Id-ia) | 
